target: Ribonucleotide reductase (Homo sapiens, UniProt P23921+Q7LG56); test: Human RNR Inhibition Effect: The inhibitory activity against the ribonucleotide reduction reaction (hereinafter referred to as RNR reaction) of the test compound was determined by measuring the formation of deoxycytidine diphosphate (hereinafter referred to as dCDP) from cytidine diphosphate (hereinafter referred to as CDP) by the following method.Human M1 subunit and human M2 subunit (mutant …
Sequence (P23921 whole entry, looked up): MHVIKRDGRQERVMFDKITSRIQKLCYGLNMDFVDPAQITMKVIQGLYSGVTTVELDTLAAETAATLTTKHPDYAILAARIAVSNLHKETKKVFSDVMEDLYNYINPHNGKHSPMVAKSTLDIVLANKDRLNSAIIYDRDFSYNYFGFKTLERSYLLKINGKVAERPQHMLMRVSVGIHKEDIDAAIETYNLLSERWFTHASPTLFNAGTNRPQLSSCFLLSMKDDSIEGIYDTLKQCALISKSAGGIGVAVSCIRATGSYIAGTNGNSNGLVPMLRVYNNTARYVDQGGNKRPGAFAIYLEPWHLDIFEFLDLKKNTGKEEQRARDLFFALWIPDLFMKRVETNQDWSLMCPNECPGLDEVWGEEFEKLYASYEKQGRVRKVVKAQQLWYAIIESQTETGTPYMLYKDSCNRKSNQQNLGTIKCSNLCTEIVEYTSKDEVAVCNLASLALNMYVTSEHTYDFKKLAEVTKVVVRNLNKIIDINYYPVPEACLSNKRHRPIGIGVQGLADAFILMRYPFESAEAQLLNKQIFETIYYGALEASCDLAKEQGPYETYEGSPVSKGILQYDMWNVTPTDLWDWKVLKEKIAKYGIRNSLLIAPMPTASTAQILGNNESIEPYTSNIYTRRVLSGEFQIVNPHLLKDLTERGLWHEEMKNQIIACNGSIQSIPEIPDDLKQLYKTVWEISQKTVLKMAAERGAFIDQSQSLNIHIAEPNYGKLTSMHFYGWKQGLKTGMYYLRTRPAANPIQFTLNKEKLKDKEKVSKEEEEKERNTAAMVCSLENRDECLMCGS
Sequence (Q7LG56 whole entry, looked up): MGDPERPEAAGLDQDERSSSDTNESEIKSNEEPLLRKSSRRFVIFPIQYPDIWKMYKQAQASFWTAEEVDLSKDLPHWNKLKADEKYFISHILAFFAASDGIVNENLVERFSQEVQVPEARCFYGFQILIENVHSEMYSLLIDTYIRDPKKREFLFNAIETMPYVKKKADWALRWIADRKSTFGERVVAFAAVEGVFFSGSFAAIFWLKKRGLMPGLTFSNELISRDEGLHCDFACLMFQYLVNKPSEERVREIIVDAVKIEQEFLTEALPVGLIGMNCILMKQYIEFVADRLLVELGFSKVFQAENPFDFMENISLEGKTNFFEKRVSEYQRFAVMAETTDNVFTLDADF

SMILES	IC50
CNC(=O)c1cc(Cl)ccc1S(=O)(=O)N[C@H](c1n[nH]c(=O)o1)[C@H](C)c1c(F)ccc(C)c1C	370 nM
COC(=O)c1cc(Br)cnc1S(=O)(=O)N[C@H](c1n[nH]c(=O)o1)[C@H](C)c1c(F)ccc(C)c1C	450 nM
Cc1cc(F)c(F)c([C@@H](C)[C@H](NS(=O)(=O)c2ccc(Cl)cc2C(N)=O)c2n[nH]c(=O)o2)c1C	140 nM
Cc1ccc(F)c([C@@H](C)[C@H](NS(=O)(=O)c2ccc(Cl)c(C#N)n2)c2n[nH]c(=O)o2)c1C	160 nM
COC(=O)c1cc(Cl)ccc1S(=O)(=O)N[C@H](c1n[nH]c(=O)o1)[C@H](C)c1c(F)ccc(C)c1C	410 nM
Cc1c(Br)ccc(F)c1[C@@H](C)[C@H](NS(=O)(=O)c1ccc(Cl)cc1C(N)=O)c1n[nH]c(=O)o1	150 nM
COc1cc(Cl)ccc1S(=O)(=O)N[C@H](c1n[nH]c(=O)o1)[C@H](C)c1cccc2cccc(C)c12	240 nM
COc1c(S(=O)(=O)N[C@H](c2n[nH]c(=O)o2)[C@H](C)c2cccc(C)c2C)ccc(Cl)c1C(C)O (some centres undefined)	180 nM
Cc1c(Br)ccc(F)c1[C@@H](C)[C@H](NS(=O)(=O)c1ccc(Br)cc1C(N)=O)c1n[nH]c(=O)o1	130 nM
Cc1ccc(F)c([C@@H](C)[C@H](NS(=O)(=O)c2ccc(Br)c(C#N)c2)c2n[nH]c(=O)o2)c1C	640 nM
Cc1ccc(F)c([C@@H](C)[C@H](NS(=O)(=O)c2ccccc2C#N)c2n[nH]c(=O)o2)c1C	640 nM
COc1cc(Cl)ccc1S(=O)(=O)N[C@H](c1n[nH]c(=O)o1)[C@H](C)c1c(F)ccc(C)c1C	140 nM
Cc1ccc(F)c([C@@H](C)[C@H](NS(=O)(=O)c2ccc(F)c3c2OCCC3=O)c2n[nH]c(=O)o2)c1C	160 nM
COC(=O)c1nc(S(=O)(=O)N[C@H](c2n[nH]c(=O)o2)[C@H](C)c2c(F)ccc(C)c2C)ccc1Cl	60 nM
COc1cc(Cl)ccc1S(=O)(=O)N[C@H](c1n[nH]c(=O)o1)C(C)c1c(F)c(F)cc(C)c1Br (some centres undefined)	420 nM
COc1nc(Cl)ccc1S(=O)(=O)N[C@H](c1n[nH]c(=O)o1)[C@H](C)c1c(F)ccc(C)c1C	100 nM
Cc1c(Br)ccc(F)c1[C@@H](C)[C@H](NS(=O)(=O)c1ccc(Cl)c2c1OCCC2(C)N)c1n[nH]c(=O)o1 (some centres undefined)	60 nM
Cc1ccc(F)c([C@@H](C)[C@H](NS(=O)(=O)c2ccc3c(c2)C(=O)CCO3)c2n[nH]c(=O)o2)c1C	280 nM
CC(=O)c1cc(Cl)ccc1S(=O)(=O)N[C@H](c1n[nH]c(=O)o1)[C@H](C)c1c(F)ccc(C)c1C	270 nM
COc1cc(Cl)ccc1S(=O)(=O)N[C@H](c1n[nH]c(=O)o1)[C@H](C)c1c(C)c(C)cc(F)c1F	160 nM
COc1ccc(-c2ccc(F)c([C@@H](C)[C@H](NS(=O)(=O)c3ccc(Cl)cc3OC)c3n[nH]c(=O)o3)c2C)cn1	260 nM
C[C@H](c1cccc2c1Cc1ccccc1-2)[C@H](NS(=O)(=O)c1ccc(Br)cn1)c1n[nH]c(=O)o1	800 nM
COc1cc(Br)ccc1S(=O)(=O)N[C@H](c1n[nH]c(=O)o1)[C@H](C)c1cccc2c1CCC2	590 nM
Cc1ccc(F)c([C@@H](C)[C@H](NS(=O)(=O)c2ccc(Cl)cc2C(=O)O)c2n[nH]c(=O)o2)c1C	180 nM
COc1cc(Cl)ccc1S(=O)(=O)N[C@H](c1n[nH]c(=O)o1)[C@H](C)c1c(F)ccc(-c2cncnc2)c1C	540 nM
COc1cc(Cl)ccc1S(=O)(=O)N[C@H](c1n[nH]c(=O)o1)[C@H](C)c1c(F)ccc(-c2cnn(C3CC3)c2)c1C	220 nM
Cc1ccc(F)c([C@@H](C)[C@H](NS(=O)(=O)c2ccc(Cl)c(-c3nnn[nH]3)c2)c2n[nH]c(=O)o2)c1C	280 nM

SMILES	IC50
Cc1c(Cl)ccc(F)c1[C@@H](C)[C@H](NS(=O)(=O)c1ncc(Br)cc1C(N)=O)c1n[nH]c(=O)o1	70 nM
Cc1ccc(F)c([C@@H](C)[C@H](NS(=O)(=O)c2ccc(Cl)c3c2OCC(=O)N3C)c2n[nH]c(=O)o2)c1C	100 nM
Cc1c(F)ccc(F)c1[C@@H](C)[C@H](NS(=O)(=O)c1ccc(Cl)cc1C(N)=O)c1n[nH]c(=O)o1	500 nM
Cc1c(Br)ccc(F)c1[C@@H](C)[C@H](NS(=O)(=O)c1ccc(C(F)(F)F)cc1C(N)=O)c1n[nH]c(=O)o1	200 nM
Cc1ccc(F)c([C@@H](C)[C@H](NS(=O)(=O)c2cc(C(=O)N3CCOCC3)ccc2C(N)=O)c2n[nH]c(=O)o2)c1C	110 nM
COc1ccccc1-c1ccc(C(N)=O)c(S(=O)(=O)N[C@H](c2n[nH]c(=O)o2)[C@H](C)c2c(F)ccc(C)c2C)c1	250 nM
Cc1ccc(F)c([C@@H](C)[C@H](NS(=O)(=O)c2c(Cl)cc(Cl)cc2C(N)=O)c2n[nH]c(=O)o2)c1C	420 nM
Cc1ccc(F)c([C@@H](C)[C@H](NS(=O)(=O)c2ccc(Cl)c3c2C(O)CCC3)c2n[nH]c(=O)o2)c1C (some centres undefined)	910 nM
COc1cc(C(N)=O)ccc1S(=O)(=O)N[C@H](c1n[nH]c(=O)o1)[C@H](C)c1c(F)ccc(C)c1C	420 nM
COc1cc(Cl)ccc1S(=O)(=O)N[C@H](c1n[nH]c(=O)o1)[C@H](C)c1c(F)ccc(C#N)c1C	840 nM
Cc1ccc(F)c([C@@H](C)[C@H](NS(=O)(=O)c2cc3c(cc2C(N)=O)OCCO3)c2n[nH]c(=O)o2)c1C	90 nM
Cc1c(Cl)ccc(F)c1[C@@H](C)[C@H](NS(=O)(=O)c1ncc(Cl)cc1C(N)=O)c1n[nH]c(=O)o1	100 nM
Cc1ccc(F)c([C@@H](C)[C@H](NS(=O)(=O)c2ccc(Br)cc2C(N)=O)c2n[nH]c(=S)o2)c1C	130 nM
Cc1ccc(F)c([C@@H](C)[C@H](NS(=O)(=O)c2ccc3[nH]nnc3c2)c2n[nH]c(=O)o2)c1C	660 nM
Cc1ccc(F)c([C@@H](C)[C@H](NS(=O)(=O)c2cc(-c3nnco3)ccc2C(N)=O)c2n[nH]c(=O)o2)c1C	90 nM
Cc1ccc(F)c([C@@H](C)[C@H](NS(=O)(=O)c2ccc(Cl)cc2C(N)=O)c2n[nH]c(=O)o2)c1	240 nM
CC(=O)OC1(C(F)(F)F)CCOc2c1cccc2S(=O)(=O)N[C@H](c1n[nH]c(=O)o1)[C@H](C)c1c(F)ccc(C)c1C (some centres undefined)	270 nM
Cc1ccc(F)c([C@@H](C)[C@H](NS(=O)(=O)c2cc([N+](=O)[O-])c(Cl)cc2C(N)=O)c2n[nH]c(=O)o2)c1C	130 nM
Cc1cccc2cccc([C@@H](C)[C@H](NS(=O)(=O)c3ccc(Cl)c4c3OCCC4(F)F)c3n[nH]c(=O)o3)c12	280 nM
COc1c(S(=O)(=O)N[C@H](c2n[nH]c(=O)o2)[C@H](C)c2c(F)ccc(C)c2C)ncc(Cl)c1C(C)OC(C)=O (some centres undefined)	430 nM
Cc1ccc(F)c([C@@H](C)[C@H](NS(=O)(=O)c2c(F)cccc2F)c2n[nH]c(=O)o2)c1C	960 nM
COc1cc(N)ccc1S(=O)(=O)N[C@H](c1n[nH]c(=O)o1)[C@H](C)c1cccc2c1CCC2	730 nM
COc1cc(Cl)ccc1S(=O)(=O)N[C@H](c1n[nH]c(=O)o1)[C@H](C)c1c(F)ccc(-c2cn[nH]c2)c1C	160 nM
C[C@H](c1cccc2c1-c1ccccc1C2)[C@H](NS(=O)(=O)c1ccc(Br)cn1)c1n[nH]c(=O)o1	850 nM
Cc1ccc(F)c([C@@H](C)[C@H](NS(=O)(=O)c2ccc(Cl)cc2C(N)=S)c2n[nH]c(=O)o2)c1C	50 nM
Cc1ccc(F)c([C@@H](C)[C@H](NS(=O)(=O)c2ccc3c(c2)CCCO3)c2n[nH]c(=O)o2)c1C	320 nM
Cc1cccc([C@@H](C)[C@H](NS(=O)(=O)c2ccc(Cl)c3c2OCC=C3)c2n[nH]c(=O)o2)c1C	790 nM

From ChEMBL document CHEMBL5729675, “Sulfonamide compound or salt thereof” (2023)
